How the values were obtained:
[1] = Transformation of (+)-17 to (+)-16a in monkey liver S9 fraction at 3 uM after 60 mins; conditions: rhesus monkey
[2] = AUC (0 to infinity) in Sprague-Dawley rat at 10 mg/kg, po; format: ADME, organism-based; design: dose 10 mg/kg, route oral, time infinity; conditions: plasma
[3] = Tmax in Sprague-Dawley rat at 10 mg/kg, po; format: ADME, organism-based; design: dose 10 mg/kg, route oral; conditions: in vivo
[4] = Transformation of (+)-17 to (+)-16a in human liver S9 fraction at 3 uM after 60 mins
[5] = Transformation of (+)-17 to (+)-16a in rat liver S9 fraction at 3 uM after 60 mins
[6] = Half life in Sprague-Dawley rat at 10 mg/kg, po; format: ADME, organism-based; design: dose 10 mg/kg, route oral; conditions: in vivo
[7] = Cmax in Sprague-Dawley rat at 10 mg/kg, po; format: ADME, organism-based; design: dose 10 mg/kg, route oral; conditions: in vivo
[8] = biological target: Metabotropic glutamate receptor 2 (Homo sapiens, UniProt Q14416); assay: Displacement of [3H]-MGS0008 from mGluR2 expressed in CHO cells; format: cell-based
Chain of Metabotropic glutamate receptor 2 (Q14416 whole entry): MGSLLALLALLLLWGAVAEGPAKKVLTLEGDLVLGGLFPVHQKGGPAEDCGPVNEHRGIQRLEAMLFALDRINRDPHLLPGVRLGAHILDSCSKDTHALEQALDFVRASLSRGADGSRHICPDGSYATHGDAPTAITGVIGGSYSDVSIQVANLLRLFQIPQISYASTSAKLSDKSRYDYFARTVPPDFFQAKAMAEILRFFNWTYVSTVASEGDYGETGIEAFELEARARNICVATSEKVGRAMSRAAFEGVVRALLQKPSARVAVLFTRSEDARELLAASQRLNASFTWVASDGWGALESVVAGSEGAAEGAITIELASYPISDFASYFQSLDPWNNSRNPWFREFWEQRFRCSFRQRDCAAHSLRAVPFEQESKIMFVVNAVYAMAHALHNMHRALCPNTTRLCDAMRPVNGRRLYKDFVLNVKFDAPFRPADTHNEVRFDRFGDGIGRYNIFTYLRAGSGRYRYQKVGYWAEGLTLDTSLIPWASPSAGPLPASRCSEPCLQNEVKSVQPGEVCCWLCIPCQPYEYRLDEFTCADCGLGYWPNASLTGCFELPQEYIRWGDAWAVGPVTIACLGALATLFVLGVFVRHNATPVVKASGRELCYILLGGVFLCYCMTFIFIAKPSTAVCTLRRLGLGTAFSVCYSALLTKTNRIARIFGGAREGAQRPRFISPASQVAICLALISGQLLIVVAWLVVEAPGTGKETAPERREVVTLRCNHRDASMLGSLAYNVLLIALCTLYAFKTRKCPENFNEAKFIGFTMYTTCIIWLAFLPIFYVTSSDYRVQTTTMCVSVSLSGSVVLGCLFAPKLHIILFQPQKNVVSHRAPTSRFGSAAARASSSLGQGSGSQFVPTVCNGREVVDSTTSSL

Structure (SMILES)	AUC(0-inf) [2] [ng·h/mL]	Tmax [3] [h]	half-life [6] [h]	Cmax [7] [ng/mL]	IC50 [8] [nM]	also measured
CCCCCCCOC(=O)[C@@]1(F)C[C@@H]1[C@@](N)(CC1c2ccccc2Oc2ccccc21)C(=O)O	78000	2	3.87	8640	–	transformation ratio at 1 h, 3 µM [1]: 7.3%; transformation ratio at 1 h, 3 µM [4]: 12.1%; transformation ratio at 1 h, 3 µM [5]: 68.1%
N[C@](CC1c2ccccc2Oc2ccccc21)(C(=O)O)[C@H]1C[C@@H]1C(=O)O	284	–	–	–	–	–

The next lines start with results.

AUC(0-inf) [2] [ng·h/mL]	Tmax [3] [h]	half-life [6] [h]	Cmax [7] [ng/mL]	IC50 [8] [nM]	Structure (SMILES)	also measured
3310	2.67	5.05	308	3.49	N[C@](CC1c2ccccc2Oc2ccccc21)(C(=O)O)[C@H]1C[C@]1(F)C(=O)O	–
–	–	–	–	> 10000	N[C@@](CC1c2ccccc2Oc2ccccc21)(C(=O)O)[C@@H]1C[C@@]1(F)C(=O)O	–
–	–	–	–	4.45	NC(CC1c2ccccc2Oc2ccccc21)(C(=O)O)C1CC1(F)C(=O)O (racemic; form 1)	–
–	–	–	–	211	NC(CC1c2ccccc2Oc2ccccc21)(C(=O)O)C1CC1(F)C(=O)O (racemic; form 2)	–
